According to patent US20250340543A1, “GPR84 ANTAGONISTS AND USES THEREOF” (Liminal BioSciences Limited, priority 2021, published 2025):

target: GPR84 (Homo sapiens (Human), UniProt Q9NQS5); test: Gai biosensor BRET assay (GPR84-mediated activation of Gai, antagonist mode against agonist ZQ-16); format: cell-based; conditions: HEK293 cells, 200 nmol/L GPR84 agonist ZQ-16, read-out: hGPR84 IC50
Text: Background—The following assays can be used for determination of GPR84 activation in living HEK293 cells. […] The Gai biosensor consists of a Rluc8-tagged Gαi2 subunit, a GFP10-tagged Gγ2 subunit, and an untagged Gβ1. […] Moreover, signaling functions of GPCRs are tightly regulated by endocytosis, the targeting of receptors to endosomes and their sorting to lysosomes or recycling to the plasma membrane. […] Agonist stimulation of GPR84—Rluc8 leads to trafficking of the receptor to EEs, and ensuing increase of the donor concentration relative to the rGFP-FYVE acceptor anchored in the same cellular compartment, and thus results in an increase in BRET signal.
Plasmids—The cDNA clones for human GPR84 receptor, human Gαi2, Gβ1, and Gγ2 were obtained from the cDNA Resource Center (www.cdna.org). GFP10 (F64L, S147P, S202F and H231L variant of Aequorea victoria Green Fluorescent Protein) gBlocks gene fragments (Integrated DNA Technologies, IA) and linker were inserted in frame at the N-terminus of human Gγ2. Rluc8 (A55T, C124A, S130A, K136R, A143M, M185V, M253L, and S287L variant of the Renilla renformis luciferase) gBlocks gene fragment was inserted with linkers in frame in between residues 91 and 92 of Gαi2 or at the C-terminus of GPR84. The FYVE domain from human endofin (residues Q739 to K806) attached in frame at the C terminus of a humanized Renilla GFP (rGFP), were synthesized as gBlocks gene fragments.
Bioluminescence Resonance Energy Transfer (BRET) Measurement—HEK293 cells were transfected with GPR84—Rluc8 and rGFP-FYVE for the EEs trafficking biosensor or with GPR84, Gαi2—Rluc8, GFP10-Gγ2, and Gβ1 for the Gai biosensor. The following day, transiently transfected cells were seeded in 96-well white clear bottom microplates coated with poly-D-lysine and left in culture for 24 hours. Cells were washed once with Tyrode's buffer (140 mmol/L NaCl, 1 mmol/L CaCl2, 2.7 mmol/L KCl, 0.49 mmol/L MgCl2, 0.37 mmol/L NaH2PO4, 5.6 mmol/L glucose, 12 mmol/L NaHCO3, and 25 mmol/L HEPES, pH 7.5) before performing assays in Tyrode's buffer. Test compounds were incubated with cells for 5 (Gai) or 15 (EEs) minutes at 37° C. before addition of 200 nmol/L of the GPR84 agonist ZQ-16 (2-(Hexylthio)-6-hydroxy-4(3H)-pyrimidinone) for 5 minutes at room temperature (Gai) or 30 minutes at 37° C. (EEs). The Rluc8 substrate coelenterazine 400A (Prolume, Lakeside, AZ) was added at a final concentration of […] and BRET readings were collected using an Infinite M1000 microplate reader (Tecan, Morrisville, NC). BRET^2 readings between Rluc8 and GFP10 or rGFP were collected by sequential integration of the signals detected in the 370 to 450 nm (Rluc8) and 510 to 540 nm (GFP10, rGFP) windows. The BRET signal was calculated as the ratio of light emitted by acceptor (GFP10, rGFP) over the light emitted by donor (Rluc8). The values were corrected to net BRET by subtracting the background BRET signal obtained in cells transfected with Rluc8 constructs alone. Ligand-promoted net BRET values were calculated by subtracting vehicle-induced net BRET from ligand-induced net BRET.

GPR84, sequence (Q9NQS5 whole entry): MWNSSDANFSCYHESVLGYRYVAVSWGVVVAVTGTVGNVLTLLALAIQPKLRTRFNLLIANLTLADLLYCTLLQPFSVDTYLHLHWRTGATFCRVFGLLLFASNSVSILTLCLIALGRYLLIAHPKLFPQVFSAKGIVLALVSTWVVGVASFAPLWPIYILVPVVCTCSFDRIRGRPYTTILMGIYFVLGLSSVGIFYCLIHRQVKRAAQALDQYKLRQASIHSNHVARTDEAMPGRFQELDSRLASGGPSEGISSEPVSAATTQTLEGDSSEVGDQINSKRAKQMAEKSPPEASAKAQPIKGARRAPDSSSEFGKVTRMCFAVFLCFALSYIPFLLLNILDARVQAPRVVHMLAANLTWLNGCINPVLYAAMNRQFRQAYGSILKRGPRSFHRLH

| IC50 | Structure (SMILES) |
| --- | --- |
| < 5 µM | COc1cc(OCC2COCCO2)cc(-c2ccc(-c3ccc(C)nc3)cc2C)n1 (stereo not shown) [Compound I-36] |
| < 5 µM | COc1cc(OCC2COCCO2)cc(-c2ccc(OCc3ccccn3)cc2C)n1 (stereo not shown) [Compound I-37] |
| > 25 µM | COc1cc(OCC2COCCO2)cc(-c2ccc(-c3ccc(C)nc3)cc2)n1 (stereo not shown) [Compound I-51] |

The remaining lines, values behind:

| Structure (SMILES) | IC50 |
| --- | --- |
| Cc1cc(OC[C@H]2COCCO2)cc(=O)n1[C@H](C)c1ccc(C#CC2CC2)cc1 (stereo in doubt) [Compound I-7] | < 5 µM |
| Cc1cc(OCC2COCCO2)cc(=O)n1C(C)c1ccc(C#CC2CC2)cc1 (stereo not shown) [Compound I-1] | < 5 µM |
| COc1cc(OCC2CCOCC2)cc(-c2ccc(-c3ccc(C)nc3)cc2C)n1 [Compound I-3] | < 5 µM |
| C(#CC1CC1)c1ccc(-c2cncc(OCC3CCCCO3)c2)cc1 (stereo not shown) [Compound I-25] | 5 to 10 µM |
| CCn1c(-c2ccc(C#CC3CC3)cc2)cc(OCC2COCCO2)cc1=O (stereo not shown) [Compound I-26] | 10 to 15 µM |
| Cc1cc(OCC2COCCO2)cc(=O)n1Cc1ccc(C#CC2CC2)cc1 (stereo not shown) [Compound I-35] | < 5 µM |

same assay, conditions: compound tested at 10 μM (concentration code D)

| inhibition at 10 µM | Structure (SMILES) |
| --- | --- |
| < 25% | Cc1nc(OCc2ccc(C#CC3CC3)cc2C)cc(OCC2COCCO2)n1 (stereo not shown) [Compound I-23] |
| 25 to 50% | Cc1cc(OCC(F)(F)F)ccc1-c1cncc(OC[C@H]2COCCO2)c1 [Compound I-32] |

Further lines, the compound ahead of its results:

| Structure (SMILES) | inhibition at 10 µM |
| --- | --- |
| Cc1cc(OC[C@H]2COCCO2)cc(=O)n1[C@H](C)c1ccc(C#CC2CC2)cc1 (stereo in doubt) [Compound I-7] | > 75% |
| Cc1cc(OCC2CCOCC2)cc(=O)n1[C@H](C)c1ccc(C#CC2CC2)cc1 (stereo in doubt) [Compound I-20] | 50 to 75% |
| Cc1cc(OCC2CCOCC2)cc(=O)n1[C@H](C)c1ccc(C#CCO)cc1 (stereo in doubt) [Compound I-61] | 25 to 50% |
| COCC#Cc1ccc([C@@H](C)n2c(C)cc(OCC3CCOCC3)cc2=O)cc1 (stereo in doubt) [Compound I-83] | < 25% |
| Cc1cc(OC[C@@H]2COCCO2)cc(=O)n1[C@@H](C)c1ccc(C#CC2CC2)cc1 (stereo in doubt) [Compound I-89] | < 25% |
| Cc1cc(OC[C@@H]2CCCCO2)cc(=O)n1[C@H](C)c1ccc(C#CC2CC2)cc1 (stereo in doubt) [Compound I-144] | > 75% |
| Cc1cc(OCC2COCCO2)cc(=O)n1[C@H](CO)c1ccc(C#CC2CC2)cc1 (stereo in doubt) [Compound I-147] | 25 to 50% |
| Cc1cc(OCC2CCOCC2)cc(=O)n1[C@H](C)c1ccc(N2CC(C)(C)C2)cc1 (stereo in doubt) [Compound I-148] | 25 to 50% |
| Cc1cc(OCc2ncccn2)cc(=O)n1[C@H](C)Cc1ccc(C#CC2CC2)cc1 (stereo in doubt) [Compound I-276] | > 75% |
| Cc1cc(OCc2ncccn2)cc(=O)n1[C@@H](C)Cc1ccc(C#CC2CC2)cc1 (stereo in doubt) [Compound I-277] | < 25% |
| Cc1cc(OCc2ncccn2)cc(=O)n1[C@H](C)Cc1cccc(C#CC2CC2)c1 (stereo in doubt) [Compound I-281] | < 25% |
| Cc1cc(OCc2ncccn2)cc(=O)n1[C@@H](C)Cc1cccc(C#CC2CC2)c1 (stereo in doubt) [Compound I-282] | < 25% |
| Cc1cc(OC[C@@H]2COCCO2)cc(=O)n1[C@H](C)c1ccc(C#CC2CC2)cc1 [Compound I-6] | > 75% |
| CC(c1ccc(C#CC2CC2)cc1)n1ccc(OCC2COCCO2)cc1=O (stereo not shown) [Compound I-13] | > 75% |
| Cc1cc(OCC2COCCO2)cc(=O)n1Cc1cccc(C#CCNc2ccccc2)c1 (stereo not shown) [Compound I-14] | < 25% |
| CCC(c1ccc(C#CC2CC2)cc1)n1c(C)cc(OCC2COCCO2)cc1=O (stereo not shown) [Compound I-21] | 50 to 75% |
| Cc1cc(OC[C@H]2COCCO2)cc(=O)n1Cc1ccc(F)c(C#CC2CC2)c1 [Compound I-28] | < 25% |
| Cc1cc(C#CC2CC2)ccc1-c1cncc(OCC2COCCO2)c1 (stereo not shown) [Compound I-43] | 25 to 50% |
| Cc1cc(OC[C@H]2COCCO2)cc(=O)n1[C@@H](C)c1ccc(C#CC2CC2)cc1 [Compound I-44] | 25 to 50% |
| Cc1cc(OCc2ccccn2)ccc1-c1cc(OCC2COc3ncccc3O2)cc(=O)[nH]1 (stereo not shown) [Compound I-48] | 25 to 50% |
| Cc1c(C#CC2CC2)cccc1Cn1c(C)cc(OC[C@H]2COCCO2)cc1=O [Compound I-49] | 25 to 50% |
| CCc1cc(OCC2COCCO2)cc(=O)n1C(C)c1ccc(C#CC2CC2)cc1 (stereo not shown) [Compound I-50] | 25 to 50% |

same assay, conditions: compound tested at 12.5 μM (concentration code E)

| inhibition at 12.5 µM | Structure (SMILES) |
| --- | --- |
| < 25% | COc1cc(OCC2COCCO2)cc(-c2ccc(OCc3ccccn3)cc2)n1 (stereo not shown) [Compound I-15] |
| 50 to 75% | C(#CC1CC1)c1ccc(-c2cncc(OCC3CCCCO3)c2)cc1 (stereo not shown) [Compound I-25] |
| 25 to 50% | Cc1c(-c2ccc(OCC(F)(F)F)cc2)n(C)c(OCC2COCCO2)cc1=O (stereo not shown) [Compound I-52] |

same assay, conditions: compound tested at 25 μM (concentration code G)

| inhibition at 25 µM | Structure (SMILES) |
| --- | --- |
| < 25% | O=c1cc(OCC2COCCO2)cc(-n2ccc(OCC(F)(F)F)cc2=O)[nH]1 (stereo not shown) [Compound I-5] |
| < 25% | CSc1nc(OCC2COCCO2)cc(-c2cnc(OCC(F)(F)F)cc2C)n1 (stereo not shown) [Compound I-9] |
| < 25% | O=c1nc(OCC2COCCO2)cc(-c2ccc(OCC(F)(F)F)cc2)[nH]1 (stereo not shown) [Compound I-10] |
| < 25% | COc1nc(OCC2COCCO2)cc(-c2ccc(C#CC3CC3)cc2)n1 (stereo not shown) [Compound I-29] |
| 25 to 50% | Cc1cc(OCC(F)(F)F)ccc1-c1cccc(OCC2COCCO2)n1 (stereo not shown) [Compound I-33] |
| 25 to 50% | COc1cc(OCC2COCCO2)cc(-c2ccc(-c3ccc(C)nc3)cc2C)n1 (stereo not shown) [Compound I-36] |
| 25 to 50% | COc1cc(OCC2COCCO2)cc(-c2ccc(OCc3ccccn3)cc2C)n1 (stereo not shown) [Compound I-37] |
| 25 to 50% | COc1cc(OC[C@H]2COCCO2)nc(-c2ccc(OCC(F)(F)F)cc2)c1C [Compound I-39] |
| < 25% | COc1cc(OCC2COCCO2)cc(-c2ccc(C#CC3CC3)cc2)n1 (stereo not shown) [Compound I-40] |
| < 25% | COc1nc(OCC2COCCO2)cc(-c2ccc(OCC(F)(F)F)cn2)n1 (stereo not shown) [Compound I-41] |
| 25 to 50% | COc1cc(OCC2COCCO2)cc(-c2c(C)cc(OCc3ccccn3)cc2C)n1 (stereo not shown) [Compound I-46] |
| 25 to 50% | Cc1ccc(-c2ccc(-c3nc(OCC4COCCO4)cc(=O)n3C)cc2)cn1 (stereo not shown) [Compound I-47] |
| 25 to 50% | COc1cc(OCC2COCCO2)cc(-c2ccc(-c3ccc(C)nc3)cc2)n1 (stereo not shown) [Compound I-51] |
| 25 to 50% | FC(F)(F)COc1ccc(-c2cncc(OCC3COCCO3)c2)cc1 (stereo not shown) [Compound I-53] |
| < 25% | CC(C)c1cc(OCC2COCCO2)cc(OCc2ccc(C#CC3CC3)cc2)n1 (stereo not shown) [Compound I-55] |

Further lines, the compound ahead of its results:

| Structure (SMILES) | inhibition at 25 µM |
| --- | --- |
| O=c1ncc(-c2ccc(C#CC3CC3)cc2)cn1C[C@H]1CCCCO1 (stereo in doubt) [Compound I-80, 5-(4-(cyclopropylethynyl)phenyl)-1-((tetrahydro-2H-pyran-2-yl)methyl)pyrimidin-2(1H)-one] | < 25% |
| Cc1cc(OCC2COCCO2)cc(=O)n1C(C)c1ccc(C#CC2CC2)cc1 (stereo not shown) [Compound I-1] | > 75% |
| O=c1cc(OCC2COCCO2)cc(-c2ccc(C#CC3CC3)cc2)[nH]1 (stereo not shown) [Compound I-8] | < 25% |
| O=c1cnn(CC2CCCCO2)c(-c2ccc(C#CC3CC3)cc2)c1 (stereo not shown) [Compound I-16] | < 25% |
| COc1cc(OCC2CCCCO2)cc(-c2ccc(-c3ccc(C)nc3)cc2C)n1 (stereo not shown) [Compound I-19] | 50 to 75% |
| Cc1cc(C#CC2CC2)ccc1-c1cncc(OCC2CCCCO2)c1 (stereo not shown) [Compound I-24] | 50 to 75% |
| CCn1c(-c2ccc(C#CC3CC3)cc2)cc(OCC2COCCO2)cc1=O (stereo not shown) [Compound I-26] | 50 to 75% |
| Cn1c(-c2ccc(C#CC3CC3)cc2)nc(OCC2COCCO2)cc1=O (stereo not shown) [Compound I-27] | 25 to 50% |
| Cc1nc(OCC2COCCO2)cc(=O)n1Cc1ccc(C#CC2CC2)cc1 (stereo not shown) [Compound I-34] | 25 to 50% |
| Cc1cc(OCC2COCCO2)cc(=O)n1Cc1ccc(C#CC2CC2)cc1 (stereo not shown) [Compound I-35] | 25 to 50% |
| Cc1cc(OCC2COCCO2)nc(=O)n1Cc1ccc(C#CC2CC2)cc1 (stereo not shown) [Compound I-38] | 25 to 50% |
| COc1cc(OCC2CCCOC2)cc(-c2ccc(-c3ccc(C)nc3)cc2C)n1 (stereo not shown) [Compound I-45] | 25 to 50% |
| C(#CC1CC1)c1ccc(-c2cc(OCC3CCCCO3)ncn2)cc1 (stereo not shown) [Compound I-54] | < 25% |
